# Measurements: patent US20060153844A1, “Methods to trigger, maintain and manipulate immune responses by targeted administration of biological response modifiers into lymphoid organs” (priority 2004, published 2006)
# Entries after “also recorded” stand apart in the source; their conditions may differ.
# Key:
# [1] = tested on: DCs; test: activation of lymph node DCs, up-regulation of CD80 and CD86 (flow cytometry); format: in vivo, C57BL/6 mice
# Protocol: To assess CpG-induced activation of professional APCs, C57BL/6 mice received titrated amounts of CpG ODN 1668pt either subcutaneously by injection into the inguinal region or by direct injection into the inguinal lymph node. After one day the inguinal lymph nodes were collected and DCs were isolated by Collagenase D digestion and positive isolation using anti-CD11c magnetic beads. Activation of DCs was assessed by measuring up-regulation of CD80 and CD86 (FIGS. 3A and B). Values represent the mean fluorescence intensity (MFI) measured by flow cytometry. As control, mice were immunized i.ln. with saline solution. Lymph node cells pooled from three mice per group were used for the analysis. At least 1.5×10^4 CD11c^+ cells were acquired per condition. […] Note that an intralymphatic control injection with saline induced slight upregulation of CD80 and CD86. This may be explained by the physical lymph node damage produced by the needle. Thus, although both sites of injection are very close to each other, direct intralymphatic administration reduced the dose of CpG that is necessary for DC maturation by 10-50 fold.
# [2] = tested on: EL-4 target cells pulsed with the ovalbumin peptide epitope; test: direct ex vivo CTL activity, 51Cr-release assay after OVA plus CpG; format: in vivo, C57BL/6 mice; settings: seven days later
# Protocol: The optimal intralymphatic dose of CpG for CTL induction was evaluated and compared to the optimal subcutaneous dose. C57BL/6 mice were injected with OVA alone or in combination with CpG ODN 1668pt. CD8 T cell responses were tested for direct ex vivo CTL activity seven days later using ^51Cr-release assays on EL-4 target cells pulsed with the ovalbumin peptide epitope (SEQ. ID. No. 2) at various effector to target cell ratios. Two dilution series of effector cells per mouse were performed. The means±SEM (n=3) are shown (see FIG. 4). […] The CTL activity was correlated with the frequency of CD8 lymphocytes staining positive for intracellular IFN-γ as measured by flow cytometry (data not shown).
# [3] = tested on: splenocyte; settings: mouse, in vivo, sc
# Protocol: C57BL/6 mice were treated with different doses of CpG and euthanized 8 days later for analysis of the spleen. […] The means±SEM (n=3) are shown. […] The means±SEM (n=3) are shown.
# [4] = tested on: PLA2-specific IgG; test: PLA2-specific IgG by ELISA after PLA2 plus titrated CpG; format: in vivo, CBA/J mice
# Protocol: The doses of CpG required to enhance Th1-dependent IgG immune responses against an allergen, and whether intralymphatic administration could reduce the required dose of CpG were evaluated. PLA2, the major allergen from bee venom, was used as a model allergen. CBA/J mice were immunized biweekly with […] ODN-1668pt together with 0.1 μg of PLA2 either intralymphatically (A) or subcutaneously (B). Three weeks after the third injection, sera of mice were collected and PLA2-specific IgG was determined by ELISA (FIG. 9). Values represent means and standard deviations obtained from three mice per group. One representative of two similar experiments is shown.
# [5] = tested on: splenocytes; test: IFN-γ, IL-4 and IL-10 secretion of splenocytes cultured with PLA2 (ELISA); format: in vivo, CBA/J mice; settings: for IFN-γ secreted (ELISA): versus LPS or 3M003 P<0.01
# Protocol: (§1) Two weeks later spleen cells were isolated, and analysed directly for intracellular IFN-γ by flow cytometry (FIG. 11) or analyzed for IFN-γ, IL-4 and IL-10 secretion by ELISA after four days cultivation with 10 μg/ml PLA2 (FIG. 12). For FIG. 11, intracellular IFN-γ was measured by flow cytometry after four hours stimulation of cells with PdBu and ionomycin (both at 500 ng/ml) in the presence of brefeldin A (10 μg/ml). The cells were then incubated with anti-CD16/CD32 for Fc-recptor blocking and stained on ice and in PBS/FCS 2% with fluorescent-labelled Abs against CD4, CD8 and CD44 (all Abs from BD Biosciences (Franklin Lakes, N.J.). Cells were subsequently fixed with 4% paraformaldehyde and permeabilised with 0.1% Nonidet P-40 before staining with Ab against IFN-γ. Four-color cytometry were performed on a FACSCalibur flow cytometer (BD Biosciences, San Jose, Calif.). Cells were gated on CD4 or CD8 positive lymphocytes and the results expressed as means (±S.D.) for three mice, as percent of T-cell subset (A) or as absolute numbers in the spleen (B). One representative out of two immunization experiments is shown. For FIG. 12, after homogenisation of spleens and lysis of red blood cells, 5×10^5 splenocytes were cultured with 20 μg/ml PLA2 protein in 200 μl IMDM (Gibco) supplemented with L-glutamine (4 mM), FCS (10%), mercaptoethanol (75 μM), as well as streptomycin and ampicillin. Supernatants were collected after 96 hours incubation and IL-4, IL-10 and IFN-γ concentrations determined by ELISA from R&D Systems (Abingdon, United Kingdom). Cytokine concentrations in supernatants as determined by ELISA after subtraction of spontaneous cytokine secretion was determined upon in vitro stimulation with an irrelevant antigen (ovalbumin). Statistical differences between the different groups were indicated when significant (P<0.01). One representative out of two immunization experiments is shown.
# [6] = tested on: PLA2-specific IgG2a and IgG1 antibodies; test: anti-PLA2 IgG2a, IgG1 and IgE in sera after intralymphatic PLA2 plus TLR ligand; format: in vivo, CBA/J mice; settings: for kinetics of the antibody production (time of maximum titers): i.ln. with 0.1 μg PLA2, sera over 13 weeks; for anti-PLA2 antibody isotypes induced (IgG2a, IgG1): i.ln. with 0.1 μg PLA2, three injections; for sero-conversion: seven weeks after the first and three weeks after last injection, i.ln. with 0.1 μg PLA2
# Protocol: The compounds were mixed within an hour before injection into the inguinal lymph node.
# The sera were obtained over 13 weeks and analyzed by ELISA for anti-PLA2 IgG2a (FIG. 10A) and IgG1 (FIG. 10B). The ratio of IgG2a to IgG1 titers was calculated as a measure for Th1/Th2 immune response balance (FIG. 10C). […] Pre-immunization levels of anti-PLA2 antibodies were measured on sera from five mice taken the day before first injection.
# [7] = tested on: CD4 or CD8 positive lymphocytes; test: intracellular IFN-γ in spleen CD4 and CD8 T cells by flow cytometry; format: in vivo, CBA/J mice; settings: two weeks after further boost of PLA2 and adjuvant; percentage and absolute number
# Protocol: as §1, with “For FIG. 12, after homogenisation of spleens and lysis of red blood cells, 5×10^5 splenocytes were cultured with 20 μg/ml PLA2 protein in 200 μl IMDM (Gibco) supplemented with L-glutamine (4 mM), FCS (10%), mercaptoethanol (75 μM), as well as streptomycin and ampicillin.” left out, “Cytokine concentrations in supernatants as determined by ELISA after subtraction of spontaneous cytokine secretion was determined upon in vitro stimulation with an irrelevant antigen (ovalbumin). Statistical differences between the different groups were indicated when significant (P<0.01). One representative out of two immunization experiments is shown.” left out
# [8] = of the 17 patients receiving IL-12 in the phase II study; cited from earlier work
# [9] = tested on: CD8+ T cell population; test: tetramer and CD8 double staining after intranodal Melan-A peptide plus BRM; format: in vivo; settings: for immune response by tetramer staining: intranodal Melan-A peptide alone, plus 0.1 nmole CpG ODN or plus 25 μg polyI:C, days 0, 3, 14 and 17
# Description: H-2 class I-negative, HLA-A2.1-transgenic (HHD-1) mice (Pascolo, S., et al., J Exp Med. 185:2043-2051, 1997 (which is incorporated herein in its entirety)) were housed under pathogen-free conditions and used for evaluation of the immunogenicity of HLA-A2.1-restricted human tumor-associated cytotoxic T lymphocyte (CTL) epitopes. Female mice 8-12 weeks of age were used for intralymphatic immunization and for isolation of splenocytes for in vivo cytotoxicity studies. […] A total of four rounds of injections were given, on days 0, 3, 14 and 17.
# The immune response was measured by tetramer and CD8 double staining of splenocytes from the immunized mice. Mononuclear cells isolated from peripheral blood after density centrifugation (Lympholyte Mammal, Cedarlane Labs) with HLA-A*0201 MART1 (SEQ. ID. No. 3)-PE MHC tetramer (Beckman Coulter) and FITC conjugated rat anti-mouse CD8a (Ly-2) monoclonal antibody (BD Biosciences). Data was collected using a BD FACS Calibur flow cytometer and analysed using Cellquest software by gating on the lymphocyte population and calculating the percent of tetramer^+ cells within the CD8^+ CTL population. The results (see FIG. 5) were expressed as means±SEM of % tetramer stained cells within the CD8+ T cell population (A), and with specific dot plot plots representative for each group (B). Splenocytes from naive transgenic mice were included as controls.
# [10] = tested on: ^51Cr-labeled target cells (T2 cells); test: standard cytotoxic assay after intranodal peptide plus polyI:C; format: in vivo, HHD-A2 transgenic mice; settings: 12.5 μg peptide+12.5 μg polyI:C per inguinal lymph node, day 0, 3, 14 and 17; targets pulsed with peptide or tumor cells
# Protocol: HHD-A2 transgenic mice (n=4/group) were immunized with various peptides (see Table 1) admixed with polyI:C, by direct inoculation into the inguinal lymph nodes (12.5 μg peptide+12.5 μg of adjuvant, in 25 μl of PBS/each inguinal lymph node at day 0, 3, 14 and 17). One week after the final administration, splenocytes were stimulated ex vivo with 10 μg/ml of peptide in presence of 5 U/ml of rIL-2 and tested in a standard cytotoxic assay, against ^51Cr-labeled target cells (T2 cells) uncoated or coated with cognate peptide, at various Effector:Target ratios. Alternatively, in the case of PSMA 288-297 epitope, cytotoxicity was measured against PSMA expressing human tumor cells (LNCap) cells coated or not with 10 μg/ml of MHC class I blocking antibody (W6/32). Cytotoxicity resulting from immunization with the NY-ESO-1 157-165 epitope was also assessed against 624.28 and 624.38 cells that had been transformed to express a GFP/NY-ESO-1 fusion protein.
# [11] = tested on: Human melanoma tumor target cells, 624.38 (Melan-A^+, HLA-A2^+); test: in vivo clearance of human melanoma tumor cells from pulmonary tissue; parameters: species or system HHD-1 mice; settings: mice immunized intranodally as in Example 4, challenged i.v. with 624.38 cells
# Protocol: The effectiveness of CTL generated as described in Example 4 was assessed as in vivo clearance of tumor cells from pulmonary tissue in mice challenged with Melan-A^+ tumor cells. Human melanoma tumor target cells, 624.38 (Melan-A^+, HLA-A2^+) were cultured in RPMI medium supplemented with 10% fetal bovine serum (Hyclone), 0.1 mM non-essential amino acids, and 0.3 mg/mL L-glutamine in a 5% CO2 incubator at 37° C. The HLA-A2^− subclone, 624.28, was grown under the same conditions and served as a negative control. Specific targets were prepared by incubating 10^8 624.38 cells with 2.5 μM CFSE in PBS for 20 minutes (CFSE^hi) and 10^8 HLA-A2^−, 624.28 target controls were labelled with 0.25 μM CFSE (CFSE^lo). Each immunized HHD-1 mouse was intravenously injected in the tail vein with a mixture of 10^7 CFSE^hi 624.38 and 10^7 CFSE^lo 624.28 cells followed by an identical injection 3 hours later. Un-immunized HHD-1 mice were also injected and served as naïve controls. […] The mononuclear cells were then isolated by density centrifugation and CFSE positive cells were analysed by FACS. The in vivo specific lysis of human melanoma target cells in the lung was calculated by the following formula: [(1−% CFSE^hi/% CFSE^lo)−(1−% CFSE^hiControl/% CFSE^loControl)]
substance,measurement,setting,value
"CpG ODN 1668pt: CpG ODN 1668pt (SEQ. ID. No. 1), unmethylated CpG oligodeoxynucleotide, TLR9 ligand (DNA TCCATGACGTTCCTGAATAAT; DNA, backbone not given here)",expression of CD80 and CD86 on DCs,"[1]; 10 and 1 nmol, regardless of the route, after one day",significantly enhanced expression of CD80 and CD86
same,reduction of the dose of CpG necessary for DC maturation,[1]; direct intralymphatic versus subcutaneous administration,10-50 fold
same,DC maturation,"[1]; low CpG doses of 0.1 and 0.01 nmol, i.ln. versus s.c.",only direct injection into the inguinal lymph node induced significant DC maturation
same,CTL activity,[2]; subcutaneous vaccination with OVA plus CpG,did not elicit CTL activity
same,CTL activity,[2]; vaccinated intralymphatically with OVA plus CpG,significant induction of cytotoxic CD8 T cells even at 0.01 nmol CpG
same,changes of B lymphocytes in spleen,[3],Only moderate changes
same,relative amounts of CD4 and CD8 T cells as well as NK cells,[3],substantially reduced in a dose-dependent manner
same,PLA2-specific antibody responses,"[4]; intralymphatic, high CpG dose of 10 nmol",no antibody responses were detectable
same,PLA2-specific antibody titers,"[4]; intralymphatic, low CpG doses of 0.1 and 0.01 nmol",highest antibody titers
same,"PLA2-specific IgG, adjuvant effect","[4]; subcutaneously, CpG 0.1 and 0.01 nmol",an adjuvant effect was no longer detectable
same,PLA2-specific IgG titers,"[4]; subcutaneously, CpG doses of 10 and 1 nmol with 0.1 μg PLA2",highest IgG titers
"CpG: phosphorothioate-modified CpG ODN 1826 (SEQ. ID. No. 10), TLR 9 ligand, Examples 8 and 9 (DNA TCCATGACGTTCCCTGACGTT; DNA, all phosphorothioate, methylation of C not given here)",IL-4 secretion,[5]; compared with 3M003 and PolyI:C (P<0.01) or LPS (P<0.05),significantly reduced IL-4 secretion
same,IL-10 production,[5]; splenocytes cultured with PLA2,the strongest IL-10 production
same,IFN-γ secreted (ELISA),[5]; splenocytes cultured with PLA2,highest amounts of IFN-γ
same,serum concentration of IgG1 relative to the titers induced by LPS or PolyI:C,"[6]; geometrically, 10 and 13 weeks",30-50%
same,kinetics of the antibody production (time of maximum titers),[6],a delay in the IgG1 antibody production
same,"anti-PLA2 antibody isotypes induced (IgG2a, IgG1)",[6],induced IgG2a
same,IgG1 in seven-week sera,[6]; seven weeks after initiating immunization,hardly detectable
same,sero-conversion,[6],notable sero-conversion
same,IFN-γ producing CD8-positive and CD4-positive T cells,[7],strongest effect
IL-12: co-stimulatory cytokine,patients died,[8],2 patients
same,patients hospitalized,[8],12 patients
"Melan-A peptide: Melan-A peptide (SEQ. ID. No. 3), A27L analogue of the A2-restricted Melan-A 26-35 epitope",immune response by tetramer staining,[9],readily detectable response by tetramer staining; also recorded: not very effective in inducing a robust T cell population expansion
peptidoglycan,kinetics of the antibody production (time of maximum titers),[6],peak titers were delayed
same,"anti-PLA2 antibody isotypes induced (IgG2a, IgG1)",[6],induced predominantly IgG2a
polyriboinosinic polyribocytidylic acid [polyI:C],IFN-γ secreted (ELISA),[5]; splenocytes cultured with PLA2,highest amounts of IFN-γ
same,cytotoxic response,[10],triggered a specific cytotoxic response
same,immune response by tetramer staining,[9],robust antigen specific response
same,"systemic acute phase reaction, mortality or morbidity at the dose used","[9]; intranodal, 0.1 nmole CpG ODN or 25 μg polyI:C",not associated with observed mortality or morbidity
same,in vivo lysis of human melanoma target cells in the lung,[11],substantial lytic activity
same,kinetics of the antibody production (time of maximum titers),[6],maximum levels of antibodies within three weeks of the final boost injection
same,"anti-PLA2 antibody isotypes induced (IgG2a, IgG1)",[6],high antibodies titers of both IgG1 and IgG2a isotypes
same,sero-conversion,[6],notable sero-conversion
